Experiment: Pharmacokinetic and distribution experiment (radioactivity in blood and excised organs after tail vein injection)
Type: in vivo
Details: ddy mice; for Adrenal gland/Blood ratio / Radioactivity Distribution, Blood / Radioactivity Distribution, Femur / Radioactivity Distribution, Heart / Radioactivity Distribution, Large intestine / Radioactivity Distribution, Lung / Radioactivity Distribution, Small intestine / Radioactivity Distribution, Spleen / Radioactivity Distribution, Stomach / Adrenal gland/Kidney ratio / Radioactivity Distribution, Adrenal gland / Radioactivity Distribution, Kidney / Radioactivity Distribution, Liver / Radioactivity Distribution, Pancreas / Adrenal gland/Liver ratio: tail vein injection; for Adrenal gland/Blood ratio / Radioactivity Distribution, Blood / Radioactivity Distribution, Femur / Radioactivity Distribution, Heart / Radioactivity Distribution, Large intestine / Radioactivity Distribution, Lung / Radioactivity Distribution, Small intestine / Radioactivity Distribution, Spleen / Radioactivity Distribution, Stomach: 14.8 kBq (4 μCi); for Adrenal gland/Kidney ratio / Radioactivity Distribution, Adrenal gland / Radioactivity Distribution, Kidney / Radioactivity Distribution, Liver / Radioactivity Distribution, Pancreas: 14.8 kBq
Method: (§1) The HPLC fraction of [^125I]PAY15 obtained in Example 3 was concentrated and then diluted with saline. The resulting solution was used in administration. 100 μL of the solution (18.5 kBq (0.5 μCi)) was injected to the tail vein of each of five ddy mice (6 weeks old). Five minutes later, each mouse was decapitated, and blood was collected. Then, organs (adrenal gland, pancreas, heart, lung, stomach, small intestine, large intestine, liver, spleen, kidney, and thyroid gland) were excised. After measurement of their weights, the radioactivities of blood and each excised organ were measured. Also, the point in time when each mouse was decapitated was changed to 5, 15, 30, 60, and 120 minutes later to perform similar operation.
The HPLC fraction of [^125I]PAY21 obtained in Example 6 was concentrated and then diluted with saline. The resulting solution was used in administration to perform the same operation as in Evaluation 1.
as §1, with “[^18F]PAY27 obtained” for “The HPLC fraction of [^125I]PAY15 obtained”, “Example 10” for “Example 3”, “was” for “was concentrated and then”, “solution (14.8” for “solution (18.5”, “kBq (4” for “kBq (0.5”, “and thigh bone)” for “and thyroid gland)”
as §1, with “[^18F]PAY54 obtained” for “The HPLC fraction of [^125I]PAY15 obtained”, “Example 13” for “Example 3”, “was” for “was concentrated and then”, “solution (14.8” for “solution (18.5”, “kBq (4” for “kBq (0.5”, “and thigh bone)” for “and thyroid gland)”

O=C1CCc2cc(-c3cncc(OCC[18F])c3)cc3c2N1CCC3 [[^18F]PAY27, 9-(5-(2-[^18F]fluoroethyloxy)pyridin-3-yl)-1,2,6,7-tetrahydro-5H-pyrido[3,2,1-ij]quinolin-3-one]
radioactivity accumulation in the adrenal gland compared with blood and periadrenal tissues (at 60 minutes after administration): high radioactivity accumulation
Adrenal gland/Blood ratio (5 min): 1.11 ± 0.17
Radioactivity Distribution, Blood (5 min): 4.0 ± 0.3 % dose/g
Radioactivity Distribution, Femur (5 min): 1.8 ± 0.1 % dose/g
Radioactivity Distribution, Heart (5 min): 3.9 ± 0.3 % dose/g
Radioactivity Distribution, Large intestine (5 min): 2.5 ± 0.2 % dose/g
Radioactivity Distribution, Lung (5 min): 3.7 ± 0.4 % dose/g
Radioactivity Distribution, Small intestine (5 min): 5.0 ± 0.4 % dose/g
Radioactivity Distribution, Spleen (5 min): 3.0 ± 0.2 % dose/g
Radioactivity Distribution, Stomach (5 min): 5.1 ± 0.4 % dose/g
Adrenal gland/Blood ratio (15 min): 0.83 ± 0.12
Radioactivity Distribution, Blood (15 min): 4.1 ± 0.2 % dose/g
Radioactivity Distribution, Femur (15 min): 2.3 ± 0.1 % dose/g
Radioactivity Distribution, Heart (15 min): 3.6 ± 0.2 % dose/g
Radioactivity Distribution, Large intestine (15 min): 5.0 ± 0.4 % dose/g
Radioactivity Distribution, Lung (15 min): 3.6 ± 0.1 % dose/g
Radioactivity Distribution, Small intestine (15 min): 6.7 ± 0.6 % dose/g
Radioactivity Distribution, Spleen (15 min): 2.8 ± 0.2 % dose/g
Radioactivity Distribution, Stomach (15 min): 5.6 ± 1.1 % dose/g
Adrenal gland/Blood ratio (30 min): 0.88 ± 0.18
Radioactivity Distribution, Blood (30 min): 3.6 ± 0.3 % dose/g
Radioactivity Distribution, Femur (30 min): 2.4 ± 0.2 % dose/g
Radioactivity Distribution, Heart (30 min): 3.2 ± 0.4 % dose/g
Radioactivity Distribution, Large intestine (30 min): 6.1 ± 0.4 % dose/g
Radioactivity Distribution, Lung (30 min): 2.7 ± 0.2 % dose/g
Radioactivity Distribution, Small intestine (30 min): 5.9 ± 0.5 % dose/g
Radioactivity Distribution, Spleen (30 min): 2.3 ± 0.1 % dose/g
Radioactivity Distribution, Stomach (30 min): 5.5 ± 0.4 % dose/g
Adrenal gland/Blood ratio (60 min): 1.43 ± 0.47
Radioactivity Distribution, Blood (60 min): 3.3 ± 0.1 % dose/g
Radioactivity Distribution, Femur (60 min): 3.9 ± 0.2 % dose/g
Radioactivity Distribution, Heart (60 min): 3.0 ± 0.2 % dose/g
Radioactivity Distribution, Large intestine (60 min): 7.0 ± 0.6 % dose/g
Radioactivity Distribution, Lung (60 min): 2.6 ± 0.2 % dose/g
Radioactivity Distribution, Small intestine (60 min): 6.0 ± 0.7 % dose/g
Radioactivity Distribution, Spleen (60 min): 2.2 ± 0.2 % dose/g
Radioactivity Distribution, Stomach (60 min): 4.1 ± 0.9 % dose/g
Adrenal gland/Blood ratio (120 min): 0.58 ± 0.44
Radioactivity Distribution, Blood (120 min): 2.8 ± 0.5 % dose/g
Radioactivity Distribution, Femur (120 min): 6.4 ± 0.4 % dose/g
Radioactivity Distribution, Heart (120 min): 2.4 ± 0.3 % dose/g
Radioactivity Distribution, Large intestine (120 min): 9.1 ± 1.4 % dose/g
Radioactivity Distribution, Lung (120 min): 2.1 ± 0.1 % dose/g
Radioactivity Distribution, Small intestine (120 min): 3.1 ± 0.6 % dose/g
Radioactivity Distribution, Spleen (120 min): 1.8 ± 0.2 % dose/g
Radioactivity Distribution, Stomach (120 min): 3.9 ± 0.6 % dose/g
Adrenal gland/Kidney ratio (5 min): 1.00 ± 0.19
Radioactivity Distribution, Adrenal gland (5 min): 4.5 ± 0.8 % dose/g
Radioactivity Distribution, Kidney (5 min): 4.5 ± 0.3 % dose/g
Radioactivity Distribution, Liver (5 min): 6.5 ± 1.0 % dose/g
Radioactivity Distribution, Pancreas (5 min): 3.0 ± 0.4 % dose/g
Adrenal gland/Kidney ratio (15 min): 0.99 ± 0.23
Radioactivity Distribution, Adrenal gland (15 min): 3.4 ± 0.5 % dose/g
Radioactivity Distribution, Kidney (15 min): 3.5 ± 0.3 % dose/g
Radioactivity Distribution, Liver (15 min): 5.1 ± 0.3 % dose/g
Radioactivity Distribution, Pancreas (15 min): 2.5 ± 0.2 % dose/g
Adrenal gland/Kidney ratio (30 min): 1.40 ± 0.28
Radioactivity Distribution, Adrenal gland (30 min): 3.2 ± 0.6 % dose/g
Radioactivity Distribution, Kidney (30 min): 2.3 ± 0.2 % dose/g
Radioactivity Distribution, Liver (30 min): 4.1 ± 0.5 % dose/g
Radioactivity Distribution, Pancreas (30 min): 2.0 ± 0.1 % dose/g
Adrenal gland/Kidney ratio (60 min): 1.88 ± 0.55
Radioactivity Distribution, Adrenal gland (60 min): 4.7 ± 1.7 % dose/g
Radioactivity Distribution, Kidney (60 min): 2.5 ± 0.4 % dose/g
Radioactivity Distribution, Liver (60 min): 3.7 ± 0.3 % dose/g
Radioactivity Distribution, Pancreas (60 min): 2.0 ± 0.1 % dose/g
Adrenal gland/Kidney ratio (120 min): 0.99 ± 0.77
Radioactivity Distribution, Adrenal gland (120 min): 2.2 ± 1.2 % dose/g
Radioactivity Distribution, Kidney (120 min): 1.7 ± 0.1 % dose/g
Radioactivity Distribution, Liver (120 min): 2.9 ± 0.5 % dose/g
Radioactivity Distribution, Pancreas (120 min): 1.5 ± 0.2 % dose/g
Adrenal gland/Liver ratio (5 min): 0.70 ± 0.16
Adrenal gland/Liver ratio (15 min): 0.67 ± 0.06
Adrenal gland/Liver ratio (30 min): 0.79 ± 0.20
Adrenal gland/Liver ratio (60 min): 1.26 ± 0.37
Adrenal gland/Liver ratio (120 min): 0.58 ± 0.46

Source: patent publication US20140187784A1, “RADIOACTIVE QUINOLINONE DERIVATIVE AND PHARMACEUTICAL DRUG COMPRISING THE SAME” (Nihon Medi-Physics Co., Ltd., priority 2012, published 2014)
